# Measurements from ChEMBL document CHEMBL1201862, “PubChem BioAssay data set” (2004).
#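 1) Cells in 96-well plates. 2) Compound, 48 h, 5 concentrations. 3) Linear interpolation between surrounding doses. 4) Unreached endpoint = highest concentration. The concentration for 50% growth inhibition is given as GI50.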 Active and inactive are the calls of the source. No stated cut-off is given here; in the data, active = GI50 up to about 1.1 µM and inactive = higher.
# How the values were obtained:
# Experiment in all cases: NCI anticancer screen, dose series, 48 h
# [1] = system: RXF 393
# [2] = system: SF-295
# [3] = system: HT-29
# [4] = system: PC-3
# [5] = system: NCI/ADR-RES
# [6] = system: RPMI-8226
# [7] = system: MDA-MB-231
# [8] = system: U-251
# [9] = system: SK-MEL-2
# [10] = system: DU-145
# [11] = system: HCC 2998
# [12] = system: SR
# [13] = system: SNB-19
# [14] = system: COLO 205
# [15] = system: SK-OV-3
# [16] = system: SK-MEL-28
# [17] = system: OVCAR-8
# [18] = system: MDA-N
# [19] = system: NCI-H522
# [20] = system: HL-60
SMILES,GI50 [1],GI50 [2],GI50 [3],GI50 [4],GI50 [5],GI50 [6],GI50 [7],GI50 [8],GI50 [9],GI50 [10],GI50 [11],GI50 [12],GI50 [13],GI50 [14],GI50 [15],GI50 [16],GI50 [17],GI50 [18],GI50 [19],GI50 [20]
COc1ccc2[nH]c(C(O)(Cc3cccnc3)Cc3cccnc3)cc2c1,> 100 µM (inactive),> 100 µM (inactive),> 100 µM (inactive),> 100 µM (inactive),> 100 µM (inactive),> 100 µM (inactive),> 100 µM (inactive),> 100 µM (inactive),> 100 µM (inactive),> 100 µM (inactive),> 100 µM (inactive),> 100 µM (inactive),> 100 µM (inactive),> 100 µM (inactive),> 100 µM (inactive),> 100 µM (inactive),> 100 µM (inactive),,,
Cc1ccc(C(=O)N2CCN(C(=O)c3ccc(C)cc3)c3ccccc32)cc1,2.24 µM (inactive),3.09 µM (inactive),2.8 µM (inactive),2.86 µM (inactive),,3.03 µM (inactive),23.7 µM (inactive),1.9 µM (inactive),1.94 µM (inactive),3.35 µM (inactive),6.58 µM (inactive),0.547 µM (active),5.77 µM (inactive),3.39 µM (inactive),2.89 µM (inactive),5.2 µM (inactive),6.25 µM (inactive),0.274 µM (active),1.85 µM (inactive),0.767 µM (active)
O=C1Cc2c([nH]c3ccccc23)C2(CC3CCCCN13)OCCO2 (stereo not drawn),29.2 µM (inactive),> 100 µM (inactive),> 100 µM (inactive),> 100 µM (inactive),> 100 µM (inactive),> 100 µM (inactive),84.5 µM (inactive),> 100 µM (inactive),> 100 µM (inactive),> 100 µM (inactive),90.6 µM (inactive),> 100 µM (inactive),> 100 µM (inactive),> 100 µM (inactive),> 100 µM (inactive),> 100 µM (inactive),> 100 µM (inactive),,,
COc1ccc(Cc2n[nH]c(Nc3ccc(Br)cc3)nc2=O)cc1OC,> 100 µM (inactive),> 100 µM (inactive),> 100 µM (inactive),> 92.5 µM (inactive),> 100 µM (inactive),> 100 µM (inactive),50.1 µM (inactive),> 100 µM (inactive),60.1 µM (inactive),> 100 µM (inactive),> 88.1 µM (inactive),30.3 µM (inactive),> 100 µM (inactive),> 100 µM (inactive),> 100 µM (inactive),> 89.9 µM (inactive),> 100 µM (inactive),,57.7 µM (inactive),57 µM (inactive)
Cc1ccc(NC(=O)CC/C(CC(=O)C(C)(C)C)=N\NC(=O)C[n+]2ccccc2)cc1C,68.1 µM (inactive),> 100 µM (inactive),91.2 µM (inactive),,,87.7 µM (inactive),,87.9 µM (inactive),> 100 µM (inactive),,> 100 µM (inactive),78.5 µM (inactive),> 100 µM (inactive),> 100 µM (inactive),> 100 µM (inactive),> 100 µM (inactive),> 100 µM (inactive),,> 100 µM (inactive),32 µM (inactive)
COP(=O)(OC)C(NC(=O)C(F)(F)F)(c1ccccc1)C(F)(F)F (stereo not drawn),> 100 µM (inactive),> 100 µM (inactive),> 100 µM (inactive),,,> 100 µM (inactive),,> 100 µM (inactive),> 100 µM (inactive),,> 100 µM (inactive),> 100 µM (inactive),> 100 µM (inactive),> 100 µM (inactive),> 100 µM (inactive),> 100 µM (inactive),> 100 µM (inactive),,> 100 µM (inactive),> 100 µM (inactive)
COC(CO[Si](C)(C)N[Si](C)(C)OCC(OC)c1ccccc1)c1ccccc1 (stereo not drawn),> 100 µM (inactive),> 100 µM (inactive),,> 100 µM (inactive),> 100 µM (inactive),> 100 µM (inactive),,> 100 µM (inactive),> 100 µM (inactive),> 100 µM (inactive),> 100 µM (inactive),> 100 µM (inactive),> 100 µM (inactive),> 100 µM (inactive),> 100 µM (inactive),> 100 µM (inactive),> 100 µM (inactive),> 100 µM (inactive),,> 100 µM (inactive)
CCOP(=O)(OCC)/C(=C\n1c(=S)[nH]c2cc(C)ccc21)C(=O)OC,> 100 µM (inactive),> 100 µM (inactive),> 100 µM (inactive),,> 100 µM (inactive),,> 100 µM (inactive),> 100 µM (inactive),> 100 µM (inactive),> 100 µM (inactive),> 100 µM (inactive),,> 100 µM (inactive),> 100 µM (inactive),> 100 µM (inactive),> 100 µM (inactive),> 100 µM (inactive),> 100 µM (inactive),,42.6 µM (inactive)
O=P1(c2ccccc2)c2ccccc2-c2ccccc21,93.8 µM (inactive),57.8 µM (inactive),,55.3 µM (inactive),,74.1 µM (inactive),> 100 µM (inactive),,> 100 µM (inactive),> 100 µM (inactive),> 100 µM (inactive),,> 100 µM (inactive),> 100 µM (inactive),> 100 µM (inactive),> 100 µM (inactive),> 100 µM (inactive),97.7 µM (inactive),> 100 µM (inactive),66.1 µM (inactive)
CN(C)c1ccc(/C=c2/c3ccccc3n3c2cc(/C=C/c2ccccc2)[n+]3C)cc1,0.0538 µM (active),0.225 µM (active),0.142 µM (active),0.0933 µM (active),,0.0208 µM (active),0.261 µM (active),0.0399 µM (active),0.282 µM (active),0.1 µM (active),0.121 µM (active),0.0367 µM (active),0.217 µM (active),0.073 µM (active),0.296 µM (active),0.269 µM (active),0.0773 µM (active),0.249 µM (active),0.108 µM (active),0.0927 µM (active)
CCCCCCCCCCCCCCCCCCNc1ccn(C2OC(COP(=O)(O)OC3CC(n4cc(F)c(=O)[nH]c4=O)OC3COP(=O)(O)OCC3OC(n4ccc(N)nc4=O)C(O)C3O)C(O)C2O)c(=O)n1 (stereo not drawn),16 µM (inactive),0.413 µM (active),13.7 µM (inactive),7.14 µM (inactive),14.5 µM (inactive),14.9 µM (inactive),26.2 µM (inactive),7.67 µM (inactive),18.1 µM (inactive),1.08 µM (active),2.35 µM (inactive),0.407 µM (active),9.2 µM (inactive),8.17 µM (inactive),19.9 µM (inactive),24.7 µM (inactive),3.1 µM (inactive),,13 µM (inactive),0.26 µM (active)
NCCCN(CCCCN(CCCN)Cc1ccccc1)Cc1ccccc1,85.3 µM (inactive),69 µM (inactive),17.3 µM (inactive),,> 100 µM (inactive),> 100 µM (inactive),> 100 µM (inactive),42.3 µM (inactive),,42.2 µM (inactive),10.8 µM (inactive),,10.7 µM (inactive),32.4 µM (inactive),62.5 µM (inactive),> 100 µM (inactive),49.5 µM (inactive),18.4 µM (inactive),10.9 µM (inactive),> 100 µM (inactive)
O=C1CCCC2=C1CC1=C(CCCC1=O)N2c1ccccc1C(=O)O,> 100 µM (inactive),,> 100 µM (inactive),> 100 µM (inactive),> 100 µM (inactive),> 100 µM (inactive),,> 100 µM (inactive),,,> 100 µM (inactive),> 100 µM (inactive),> 100 µM (inactive),,> 100 µM (inactive),> 100 µM (inactive),> 100 µM (inactive),,,> 100 µM (inactive)
Cc1cccc2c(=O)c3cccc(CC(=O)O)c3oc12,,> 100 µM (inactive),> 100 µM (inactive),> 100 µM (inactive),> 100 µM (inactive),> 100 µM (inactive),> 100 µM (inactive),> 100 µM (inactive),> 100 µM (inactive),,> 100 µM (inactive),> 100 µM (inactive),> 100 µM (inactive),> 100 µM (inactive),> 100 µM (inactive),> 100 µM (inactive),> 100 µM (inactive),> 100 µM (inactive),> 100 µM (inactive),> 100 µM (inactive)
c1ccc([P+](CCSCCSCC[P+](c2ccccc2)(c2ccccc2)c2ccccc2)(c2ccccc2)c2ccccc2)cc1,> 100 µM (inactive),33 µM (inactive),> 100 µM (inactive),,> 100 µM (inactive),,> 100 µM (inactive),24.7 µM (inactive),> 100 µM (inactive),> 100 µM (inactive),> 100 µM (inactive),,> 100 µM (inactive),> 100 µM (inactive),> 100 µM (inactive),> 100 µM (inactive),> 100 µM (inactive),> 100 µM (inactive),,> 100 µM (inactive)
CC(C)(O)C(O)COc1c2c(cc3oc(=O)ccc13)OCO2 (stereo not drawn),> 100 µM (inactive),> 100 µM (inactive),> 100 µM (inactive),,,> 100 µM (inactive),,> 100 µM (inactive),> 100 µM (inactive),,> 100 µM (inactive),> 100 µM (inactive),> 100 µM (inactive),> 100 µM (inactive),> 100 µM (inactive),> 100 µM (inactive),> 100 µM (inactive),,> 100 µM (inactive),> 100 µM (inactive)
